Experiments:
[1] = test system: rats subjected to middle cerebral artery occlusion (MCAo); test: Neurologic Severity Scale (NSS) after MCAo, combination study; type: in vivo, rat; settings: treatment 1 day after stroke; NN 0.4 mg/kg IP, hMSCs 1×10^6 cells iv; vs control (PBS)
Description: (§1) Male Wistar rats (n=32) were subjected to middle cerebral artery occlusion (MCAo) and were randomized with 8 rats in four treatment groups, with treatment initiated 1 day after stroke. Groups included: 1) phosphate buffered saline (PBS); 2) subtherapeutic DETA-NONOate (NN) at a dose of 0.4 mg/kg (IP); 3) subtherapeutic hMSCs (1×10^6 cells-iv); and 4) combination subtherapeutic NN and hMSCs. Functional outcome measurements consisted of a Neurologic Severity Scale (18 point scale) (NSS) and the Adhesive Removal Test performed prior to stroke, immediately before treatment and at 7 and 14 days after treatment. […] However, there was an overall hMSC effect on NSS at 14 days.

rat VEGF = test: Sandwich ELISA of VEGF secretion from endogenous cells after MCAo; type: in vivo; settings: vs MCAo control group
Description: as §1
To obtain insight into the mechanisms associated with the induction of angiogenesis and neurogenesis, the fact that combination therapy induces the expression of neurotrophic and growth factors in brain was tested. Data are presented on the levels of vascular endothelial growth factor (VEGF) in brain after treatment with MSCs.

[2] = test system: rats subjected to middle cerebral artery occlusion (MCAo); test: Volume of cerebral infarction after MCAo, combination study; type: in vivo, rat; settings: treatment 1 day after MCAo; NN 0.4 mg/kg IP, hMSCs 1×10^6 cells iv; no significant reduction vs PBS
Description: as §1
No significant reduction of volume of ischemic damage was detected in rats with hMSC (30.7±6.2%) or NONOate ([…]) and combination hMSCs with NONOate (28.7±6.7%) treatment, compared with control rats subjected to MCAo with PBS ([…]), hMSCs were identified immunohistochemically using an antibody specific for human chromosomes (MAB1281). Within the brain tissue, cells derived from hMSCs were characterized by MAB1281 staining. No MAB1281 positive cells were found in the non-hMSCs treated rats. MSCs identified by MAB1281 survived and were distributed throughout the damaged brain of recipient rats. […] The vast majority of MAB1281 positive hMSCs were located in the ischemic boundary zone.

[3] = test system: BrdU-immunoreactive cells in the subventricular zone and dentate gyrus; test: BrdU cell proliferation in subventricular zone and dentate gyrus after embolic MCA occlusion; type: in vivo, rat; settings: 28 days
Description: Male Wistar rats weighing 320 to 380 g were used in the present study. The middle cerebral artery (MCA) was occluded by placement of an embolus at the origin of the MCA. […] Ischemic rats (n=9) were treated with the same volume of tap water as a control group. Functional tests were performed and body weight was measured before ischemia and at 4, 7, 14, 21, and 28 days after onset of MCA occlusion. All rats were killed 28 days after MCA occlusion. […] These rats were killed 1 hour after the last treatment for measurements of brain levels of cGMP. […] Reverse transcription (RT)-polymerase chain reaction (PCR) was performed to detect PDE5 in brain tissue. Bromodeoxyuridine (BrdU) was used to measure cell proliferation. Animals received daily intraperitoneal injections of BrdU (50 mg/kg; Sigma) on the day of stroke and subsequently for 14 consecutive days. Cell proliferation in the subventricular zone and dentate gyrus was measured in rats killed at 28 days (in experimental protocol 1, all 4 groups) after ischemia. […] Sections were incubated with a primary antibody to BrdU (1:100) at room temperature for 1 hour and then incubated with biotinylated secondary antibody (1:200, Vector) for 1 hour. Reaction product was detected with the use of 3′3′-diaminobenzidine-tetrahydrochloride (DAB; Sigma), For ′III-tubulin (TuJ1) immunostaining, which identifies immature neurons, 12 coronal sections were incubated with the antibody against TuJ1 (1:1000) at 4° C. overnight and were then incubated with a biotinylated horse anti-mouse immunoglobulin antibody at room temperature for 30 minutes. Double immunofluorescent staining for BrdU and TuJ1 as performed to determine whether BrdU-immunoreactive cells express neuronal phenotype on the coronal sections. Measurements of BrdU-immunoreactive cells were performed on paraffin-embedded 6-μm-thick sections. 11 BrdU-immunostained sections were digitized with the use of a 40 objective (Olympus BX40) via the MCID computer imaging analysis system (Imaging Research). BrdU-immunoreactive nuclei were counted on a computer monitor to improve visualization and in 1 focal plane to avoid oversampling. All BrdU-immunoreactive-positive nuclei were counted in both the ipsilateral and contralateral walls of the lateral ventricle of the subventricular zone and in the dentate gyrus. […] For the dentate gyrus, every 50th coronal section was selected from each rat for a total of 8 sections between anteroposterior 5.86 mm and anteroposterior 2.96 mm of the granule cell layer. BrdU-immunoreactive nuclei in the subventricular zone and in the dentate gyrus are presented as the number of the cells per square millimeter (mean SE). […] Numbers of TuJ1-immunoreactive cells were counted in the subventricular one and striatum, and data are presented as the number of TuJ1-immunoreactive cells per section (mean SE).

[4] = Sildenafil 2 mg/kg from 2 h after MCA occlusion
[5] = Sildenafil 2 mg/kg from 24 h after MCA occlusion
[6] = Sildenafil 5 mg/kg from 2 h after MCA occlusion

NCCN(CCN)/[N+]([O-])=N/O [DETANONOate, (Z)-1-[N-(2-aminoethyl)-N-(2-ammonioethyl)aminio]diazen-1-ium-1,2-diolate]
NSS at 14 days [1]: No significant difference | VEGF secretion from endogenous cells (rat VEGF) (rat VEGF): did not show a significant increase | volume of ischemic damage [2]: 32.2±62%

CCCc1nn(C)c2c(=O)[nH]c(-c3cc(S(=O)(=O)N4CCN(C)CC4)ccc3OCC)nc12 [Sildenafil]
Density of newborn cells, Dentate Gyrus Contralateral [3, 4]: 55 ± 2.10 cells per mm^2 | Density of newborn cells, Dentate Gyrus Ipsilateral [3, 4]: 55 ± 3.99 cells per mm^2 | Density of newborn cells, Subventricular Zone Contralateral [3, 4]: 296 ± 19.74 cells per mm^2 | Density of newborn cells, Dentate Gyrus Contralateral [3, 5]: 56 ± 4.76 cells per mm^2 | Density of newborn cells, Dentate Gyrus Ipsilateral [3, 5]: 57 ± 4.21 cells per mm^2 | Density of newborn cells, Subventricular Zone Contralateral [3, 5]: 295 ± 24.54 cells per mm^2 | Density of newborn cells, Subventricular Zone Ipsilateral [3, 5]: 374 ± 16.07 cells per mm^2 | Density of newborn cells, Subventricular Zone Ipsilateral ([3]; Sildenafil 2 mg/kg oral daily 7 days from 2 h after MCA occlusion): 383 ± 23.44 cells per mm^2 | Density of newborn cells, Dentate Gyrus Contralateral [3, 6]: 58 ± 5.38 cells per mm^2 | Density of newborn cells, Dentate Gyrus Ipsilateral [3, 6]: 59 ± 5.26 cells per mm^2 | Density of newborn cells, Subventricular Zone Contralateral [3, 6]: 312 ± 23.79 cells per mm^2 | Density of newborn cells, Subventricular Zone Ipsilateral [3, 6]: 437 ± 32.97 cells per mm^2

— patent US20120009152A1, “NITRIC OXIDE DONORS FOR TREATMENT OF DISEASE AND INJURY” (priority 2002, published 2012)
